Laboratory results as given in publication PMC11845477, “Exploring the principles behind antibiotics with limited resistance” (Nature Communications, 2025).
Like-named read-outs stand apart in the source and are kept apart here. Where a SMILES comes first, the peptide text is derived from it. Bridges are numbered along the chain shown (N, C = ends). [ ]: non-standard residue; d: D form. The star is where a group is joined. X2 = CC[C@H](C)CCCCC(=O)*; Dab = NCC[C@H](N)C(=O)O

Experiments:
[1] = test system: A. baumannii ATCC 17978 (SEN) and A. baumannii ATCC BAA-1605 (MDR); test: Frequency-of-resistance (FoR) assay, relative MIC of mutants; assay type: cell-based, Acinetobacter baumannii; conditions: for Relative MIC: Acinetobacter baumannii ATCC 17978 (AB-SEN); for MIC: Acinetobacter baumannii, read-out: MIC of evolved line, Acinetobacter baumannii ATCC 17978 (AB-SEN)
Procedure: (§1) The susceptibility of antibiotics to resistance development was evaluated in two strains of each bacterial species: a multidrug-resistant strain and an antibiotic-sensitive strain of Escherichia coli, Klebsiella pneumoniae, Acinetobacter baumannii, and Pseudomonas aeruginosa. To explore first-step resistance, we previously used a standard protocol for spontaneous frequency-of-resistance analysis (FoR assay) at multiple concentrations of each antibiotic[10],[28],[31]–[33]. […] For all other combinations, approximately 10^10 bacterial cells were exposed to one of each antibiotic on agar plates for two days at concentrations where the given strain is susceptible. We examined resistance levels by contrasting the minimum inhibitory concentration (MICs) of the mutated strains to the original wild-type bacterial strain (i.e., relative MIC).
(§2) To estimate the frequency of spontaneous mutations that confer resistance in a microbial population, we conducted a frequency of resistance (FoR) assay following established protocols[10],[31]–[33]. […] Prior to plating, bacteria were grown overnight in MHB medium at 37 °C and 250 RPM, then centrifuged and washed in MHB. All experiments were performed in triplicate, and plates were incubated at 37 °C for 48 hours. Total colony-forming units (CFUs) were determined by plating appropriate dilutions onto antibiotic-free MHB agar. Resistance frequencies were calculated by dividing the number of resistant colonies by the initial viable cell count. From the plates with the highest antibiotic concentration, ten colonies were selected for MIC determination and whole-genome sequencing.
(§3) A robotic liquid handling system was used to automatically prepare a 11 to 16-step serial dilution in 384-well microtiter plates (Greiner). A final concentration of 5 × 10^5 bacterial cells per mL were inoculated into each well containing 60 µL MHB medium. Bacterial cultures were incubated at 37 °C with continuous shaking (Infors shaker, 900 rpm with 3 mm throw) for 18 hours (2 replicates from each). Cell growth was monitored by measuring the optical density (OD600 values, using Biotek Synergy microplate reader). MIC was defined as the antibiotic concentration of complete growth inhibition (i.e., OD600 < 0.05). Relative MIC was calculated as follows:1 relativeMIC=MICevolved/MICancestor […]
(§4) Supplementary Figure 3. Resistance levels following the frequency of resistance assay across bacterial strains. The level of resistance was measured as the fold change in relative MIC between evolved and ancestral strains. Data are grouped by bacterial strain (A. baumannii (AB), E. coli (EC), K. pneumoniae (KP), and P. aeruginosa (PA)) and categorized as either multidrug-resistant (MDR) or sensitive (SEN). Each data point represents a laboratory evolved line, and boxplots show the median, first and third quartiles, with whiskers indicating the 5th and 95th percentiles. […]
(§5) analysis was performed using two-sided Dunn’s post-hoc test with Benjamini-Hochberg correction for multiple comparisons (**/ * indicates p < 0.01/ 0.05). For detailed information on antibiotic and bacterial species, see Supplementary Table 1. For mode of action groups, refer to Table 1. Source data are provided as a Source Data file.

[2] = test system: K. pneumoniae ATCC 10031 (SEN) and K. pneumoniae ATCC 700603 (MDR); test: microbe, parasite or virus in culture; assay type: cell-based, Klebsiella pneumoniae; conditions: for MIC: across three biological replicates
Procedure: This study focused on multiple bacterial strains, as follows. For the FoR and ALE experiments, 2 strains per species were chosen: E. coli ATCC 25922, K. pneumoniae ATCC 10031, A. baumannii ATCC 17978, and P. aeruginosa ATCC BAA-3107 as sensitive (SEN) strains, and E. coli NCTC13846, K. pneumoniae ATCC 700603, A. baumannii ATCC BAA-1605 and P. aeruginosa LESB58 as multi-drug resistant (MDR) strains. Functional metagenomic screens were performed with E. coli ATCC 25922 and K. pneumoniae ATCC 10031 strains. To determine the dose-kill properties of the different antibiotics, an E. coli strain (ATCC 25922) expressing a yellow fluorescent protein (pZS2R, YFP, CHL^R) and a red fluorescent protein (pZS2R, mCherry, CHL^R) was used.
Unless otherwise indicated, cation-adjusted Mueller-Hinton Broth 2 (MHB, Millipore) medium was used throughout the study, except for SCH79797 (SCH).
A robotic liquid handling system was used to automatically prepare a 11 to 16-step serial dilution in 384-well microtiter plates (Greiner). A final concentration of 5 × 10^5 bacterial cells per mL were inoculated into each well containing 60 µL MHB medium. Bacterial cultures were incubated at 37 °C with continuous shaking (Infors shaker, 900 rpm with 3 mm throw) for 18 hours (2 replicates from each). Cell growth was monitored by measuring the optical density (OD600 values, using Biotek Synergy microplate reader). MIC was defined as the antibiotic concentration of complete growth inhibition (i.e., OD600 < 0.05). Relative MIC was calculated as follows:1 relativeMIC=MICevolved/MICancestor

[3] = test system: K. pneumoniae ATCC 10031 (SEN) and K. pneumoniae ATCC 700603 (MDR); test: Frequency-of-resistance (FoR) assay, relative MIC of mutants; assay type: cell-based, Klebsiella pneumoniae; conditions: for MIC: Klebsiella pneumoniae
Procedure: as §1, §2, §3, §4, §5

[4] = Klebsiella pneumoniae ATCC 10031 (KP-SEN), ancestor strain
[5] = Klebsiella pneumoniae ATCC 10031 (KP-SEN), ancestor strain, sheet fig 2a
[6] = Klebsiella pneumoniae ATCC 700603 (KP-MDR), ancestor strain
[7] = Klebsiella pneumoniae ATCC 700603 (KP-MDR), ancestor strain, sheet fig 2a
[8] = Klebsiella pneumoniae, Klebsiella pneumoniae ATCC 10031 (KP-SEN)
[9] = Klebsiella pneumoniae, Klebsiella pneumoniae ATCC 700603 (KP-MDR)
[10] = Klebsiella pneumoniae ATCC 10031 (KP-SEN), evolved line 1 versus ancestor
[11] = Klebsiella pneumoniae ATCC 10031 (KP-SEN), evolved line 2 versus ancestor
[12] = Klebsiella pneumoniae ATCC 10031 (KP-SEN), evolved line 3 versus ancestor
[13] = Klebsiella pneumoniae ATCC 700603 (KP-MDR), evolved line 1 versus ancestor
[14] = Klebsiella pneumoniae ATCC 700603 (KP-MDR), evolved line 2 versus ancestor
[15] = Klebsiella pneumoniae ATCC 700603 (KP-MDR), evolved line 3 versus ancestor
[16] = read-out: MIC of evolved line, Klebsiella pneumoniae ATCC 10031 (KP-SEN), evolved line 1
[17] = read-out: MIC of evolved line, Klebsiella pneumoniae ATCC 10031 (KP-SEN), evolved line 2
[18] = read-out: MIC of evolved line, Klebsiella pneumoniae ATCC 700603 (KP-MDR), evolved line 1
[19] = read-out: MIC of evolved line, Klebsiella pneumoniae ATCC 700603 (KP-MDR), evolved line 2
[20] = read-out: MIC of evolved line, Klebsiella pneumoniae ATCC 10031 (KP-SEN), evolved line 3
[21] = read-out: MIC of evolved line, Klebsiella pneumoniae ATCC 700603 (KP-MDR), evolved line 3
[22] = Klebsiella pneumoniae ATCC 10031 (KP-SEN)
[23] = Klebsiella pneumoniae ATCC 700603 (KP-MDR)

CN[C@@H]1[C@@H](O[C@H]2O[C@H](CO)[C@@H](N)[C@H](O)[C@H]2O)OC2C[C@@H](N)[C@@H](O[C@H]3[C@H](O)[C@@H](O)[C@H](N)C[C@@H]3N)OC2[C@@H]1O (stereo partly shown) [Apramycin]
Relative MIC ([1]; evolved line 1 versus ancestor): 8
Relative MIC ([1]; evolved line 2 versus ancestor): 16
Relative MIC ([1]; evolved line 3 versus ancestor): 8
MIC ([1]; evolved line 1): 32 µg/mL
MIC ([1]; evolved line 2): 64 µg/mL
MIC ([1]; evolved line 3): 32 µg/mL
MIC of ancestor [2, 4]: 2 µg/mL
MIC of ancestor [2, 5]: 2 µg/mL
MIC of ancestor [2, 6]: 4 µg/mL
MIC of ancestor [2, 7]: 4 µg/mL
MIC [2, 8]: 2 µg/mL
MIC [2, 9]: 4 µg/mL
Relative MIC [3, 10]: 8
Relative MIC [3, 11]: 8
Relative MIC [3, 12]: 2
Relative MIC [3, 13]: 2
Relative MIC [3, 14]: 2
Relative MIC [3, 15]: 1
MIC [3, 16]: 16 µg/mL
MIC [3, 17]: 16 µg/mL
MIC [3, 18]: 8 µg/mL
MIC [3, 19]: 8 µg/mL

Nc1nc(-n2cc(C(=O)O)c(=O)c3cc(F)c(N4CC(O)C4)c(Cl)c32)c(F)cc1F [Delafloxacin]
Relative MIC ([1]; evolved line 1 versus ancestor): 8
Relative MIC ([1]; evolved line 2 versus ancestor): 4
Relative MIC ([1]; evolved line 3 versus ancestor): 8
MIC ([1]; evolved line 1): 0.5 µg/mL
MIC ([1]; evolved line 2): 0.25 µg/mL
MIC ([1]; evolved line 3): 0.5 µg/mL
MIC of ancestor [2, 4]: 0.00195 µg/mL
MIC of ancestor [2, 5]: 0.00195 µg/mL
MIC of ancestor [2, 6]: 1 µg/mL
MIC of ancestor [2, 7]: 1 µg/mL
MIC [2, 8]: 0.00195 µg/mL
MIC [2, 9]: 1 µg/mL
Relative MIC [3, 10]: 32
Relative MIC [3, 11]: 64
Relative MIC [3, 12]: 32
Relative MIC [3, 13]: 4
Relative MIC [3, 14]: 4
Relative MIC [3, 15]: 4
MIC [3, 16]: 0.0625 µg/mL
MIC [3, 17]: 0.125 µg/mL
MIC [3, 20]: 0.0625 µg/mL
MIC [3, 18]: 4 µg/mL
MIC [3, 19]: 4 µg/mL
MIC [3, 21]: 4 µg/mL

C[C@H]1c2cccc(O)c2C(=O)C2=C(O)[C@]3(O)C(=O)C(C(N)=O)=C(O)[C@@H](N(C)C)[C@@H]3[C@@H](O)[C@@H]21 [Doxycycline]
Relative MIC ([1]; evolved line 1 versus ancestor): 1
Relative MIC ([1]; evolved line 2 versus ancestor): 1
Relative MIC ([1]; evolved line 3 versus ancestor): 1
MIC of ancestor [2, 4]: 0.25 µg/mL
MIC of ancestor [2, 5]: 0.25 µg/mL
MIC [2, 8]: 0.25 µg/mL
MIC [2, 9]: 32 µg/mL
Relative MIC [3, 10]: 4
Relative MIC [3, 11]: 4
Relative MIC [3, 12]: 2
MIC [3, 16]: 1 µg/mL
MIC [3, 17]: 1 µg/mL
MIC [3, 20]: 0.5 µg/mL

C[C@@H](O)[C@H]1C(=O)N2C(C(=O)O)=C(S[C@@H]3CN[C@H](C(=O)N(C)C)C3)[C@H](C)[C@H]12 [Meropenem]
MIC of ancestor ([2]; KP-MDR, Klebsiella pneumoniae ATCC 700603, ancestor strain): 0.0625 µg/mL
MIC of ancestor [2, 5]: 0.0312 µg/mL
MIC of ancestor [2, 7]: 0.0625 µg/mL
MIC [2, 8]: 0.0312 µg/mL
MIC [2, 9]: 0.0625 µg/mL
MIC [3, 16]: 0.0156 µg/mL
MIC [3, 17]: 0.0156 µg/mL
MIC [3, 20]: 0.0156 µg/mL
MIC [3, 18]: 2 µg/mL
MIC [3, 19]: 0.0625 µg/mL
MIC [3, 21]: 1 µg/mL

CC[C@H](C)CCCCC(=O)N[C@@H](CCN)C(=O)N[C@H](C(=O)N[C@@H](CCN)C(=O)N[C@H]1CCNC(=O)[C@H]([C@@H](C)O)NC(=O)[C@H](CCN)NC(=O)[C@H](CCN)NC(=O)[C@H](CC(C)C)NC(=O)[C@@H](Cc2ccccc2)NC(=O)[C@H](CCN)NC1=O)[C@@H](C)O [Polymyxin B] (X2-[Dab]T[Dab][Dab][Dab][dF]L[Dab][Dab]T; lactam 4-C (inferred); N-terminus assumed)
MIC [2, 22]: 2 µg/mL
MIC [2, 23]: 1 µg/mL

C[C@@H]1CN2c3c(cc4c(N5C(=O)OC[C@@H]5C)noc4c3F)CC3(C(=O)NC(=O)NC3=O)[C@H]2[C@H](C)O1 [Zoliflodacin]
MIC of ancestor ([2]; K. pneumoniae ATCC 10031 (KP-SEN), ancestor strain): 0.125 µg/mL
MIC of ancestor [2, 5]: 0.125 µg/mL
MIC [2, 8]: 0.125 µg/mL
MIC [2, 9]: > 32 µg/mL
Relative MIC [3, 10]: 32
Relative MIC [3, 11]: 128
Relative MIC [3, 12]: 128
MIC [3, 16]: 4 µg/mL
MIC [3, 17]: 16 µg/mL
MIC [3, 20]: 16 µg/mL

POL7306
MIC [2, 22]: 1 µg/mL
MIC [2, 23]: 1 µg/mL

Tridecaptin M152-P3
MIC of ancestor [2, 5]: 4 µg/mL
MIC [2, 22]: 4 µg/mL
MIC [2, 23]: 8 µg/mL
MIC of ancestor ([2]; ancestor KP-SEN (Klebsiella pneumoniae ATCC 10031)): 4 µg/mL
MIC of evolved line ([3]; Klebsiella pneumoniae ATCC 10031 (KP-SEN), evolved line 1): 16 µg/mL
MIC of evolved line ([3]; Klebsiella pneumoniae ATCC 10031 (KP-SEN), evolved line 2): 8 µg/mL
MIC of evolved line ([3]; Klebsiella pneumoniae ATCC 10031 (KP-SEN), evolved line 3): 16 µg/mL
